Results from patent US20060270591A1, “Androgen receptor coregulators” (priority 2002, published 2006).

Tests used:
[1] = system: p27^KIP1; assay: Western blot of p27KIP1 in PC-3(AR2) cells; type: cell-based, human; conditions: 10 nM DHT
Description: 41. […] (A) C2C12, COS-1, DU145 and PC-3 cell lines were co-transfected with 30 ng pSG5-AR, 0.5 μg MMTV-Luc, 1 ng pRL-SV40, various amounts of pSG5-bSV as indicated, and adjusted to total amount of 2 μg DNA with pSG5. The assay method was the same as FIG. 2. After measuring the luciferase activity, values relative to lane 1 were calculated. Results are the mean±S.D. of three independent experiments. (B) PC-3 was co-transfected with 30 ng pSG5-AR, 1.5 μg pSG5-bSV, 1 ng pRL-SV40, and 0.5 μg reporter gene as indicated by using SuperFect. […] (C) PC-3(AR2) cell line was transfected with EGFP or EGFP-bSV expressing vector using SuperFect. […] Proteins extracted from cells were loaded on 15% SDS-PAGE and analyzed by western blotting. The intensity of each p27 band was quantified and normalized with control protein which is a non-specific band pick up by the antibody in the same blot. The relative intensities to lane 1 were calculated.
478. Protein samples extracted from the cell were separated on 15% SDS-PAGE and transferred to nitrocellulose membranes. Membranes were incubated 1 h with 5% non-fat milk in TBST at room temperature, followed by the antibodies against p27^(KIP1) (Santa Cruz), followed by AP conjugated goat-antimouse antibody. Blots were developed using the AP developing reagent from Bio-Rad. Band intensity was quantitated by Collage® image analysis software (Fotodyne Inc.).

[2] = biological target: T1, GR (Homo sapiens, UniProt P04150); assay: GR transactivation reporter assay with SV; type: cell-based; design: expressed in transfected cells; host or cells: DU145, PC-3, HepG2; conditions: MMTV-Luc; compared to AR
T1 sequence (P04150 1-777): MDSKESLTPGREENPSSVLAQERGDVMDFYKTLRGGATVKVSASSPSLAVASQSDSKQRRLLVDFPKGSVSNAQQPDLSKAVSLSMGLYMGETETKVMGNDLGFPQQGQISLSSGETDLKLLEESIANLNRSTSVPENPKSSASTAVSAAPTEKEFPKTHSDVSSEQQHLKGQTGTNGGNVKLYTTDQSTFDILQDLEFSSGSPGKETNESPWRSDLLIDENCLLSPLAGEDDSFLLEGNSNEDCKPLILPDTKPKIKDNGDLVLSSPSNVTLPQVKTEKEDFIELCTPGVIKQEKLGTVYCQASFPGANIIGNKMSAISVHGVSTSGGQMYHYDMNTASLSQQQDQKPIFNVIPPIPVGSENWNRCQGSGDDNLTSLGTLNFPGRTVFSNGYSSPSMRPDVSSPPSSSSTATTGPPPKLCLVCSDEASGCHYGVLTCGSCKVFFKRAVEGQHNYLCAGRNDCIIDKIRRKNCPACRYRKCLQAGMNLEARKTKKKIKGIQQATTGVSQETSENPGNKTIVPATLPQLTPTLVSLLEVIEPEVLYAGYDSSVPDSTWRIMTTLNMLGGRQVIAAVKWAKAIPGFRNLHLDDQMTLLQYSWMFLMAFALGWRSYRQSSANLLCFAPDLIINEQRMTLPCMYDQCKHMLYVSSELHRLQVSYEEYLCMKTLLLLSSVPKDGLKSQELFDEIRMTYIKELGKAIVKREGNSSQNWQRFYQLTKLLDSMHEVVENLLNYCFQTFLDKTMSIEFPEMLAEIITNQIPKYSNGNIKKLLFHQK
Description: 42. […] (A) The interaction of SV with AR, GR, PPAR-γ and ER-α is tested in mammalian two-hybrid assay. One μg plasmids expressing Gal4(DBD)-AR, GR, PPAR-γ or ER-α was co-transfected with 4 μg plasmids expressing VP16 or VP16-SVn to COS-1 cells. […] The assay method was the same as described in FIG. 29. Relative activities of ligand treatment to EtOH treatment are shown. (B) The coactivation function of SV in different receptors was assayed using reporter gene study. MMTV-Luc, PPRE-Luc, ERE-Luc are the reporter genes for AR, GR, PPAR-γ, and ER-α respectively. Lanes 1, 5, 9 and 13 are regarded as 1 fold in each panel.
475. In AR transactivation activity assays, transfections were performed using SuperFect (Qiagen, Chatsworth, Calif.) following protocols described in manual provided by Qiagen. Briefly, cells were plated on 35 mm dishes and after 24 h were transfected using the SuperFect kit. The total DNA amount was adjusted to 2 μg with pSG5 or pEGFP vectors. The medium was changed to DMEM with 10% CD-FBS 2 h after transfection. After 24 h, the DMEM with 10% CD-FBS was changed again, and the cells were treated with various steroids. Cells were harvested after 24 h for dual-luciferase assay as described in protocol provided by Promega. At least three independent experiments were carried out in each case.

SV: supervillin, 205 kDa actin binding protein; bovine SV (a.a. 1-1792) used in reporter assays
p27^(KIP1) protein expression [1]: further enhanced p27^(KIP1) protein expression | effect on the transactivation of GR [2]: less enhancement effect
